Experiment in all cases: inhibition of tumour cell growth, NCI panel, 48 h
The subject of assay [1] is DU-145 prostate.
Assay [2] deals with HCT-15 colon.
Assay [3] concerns K-562 leukemia.
Assay [4] has as its system MCF7 breast.
Assay [5] has as its system MDA-N.
The subject of assay [6] is NCI/ADR-RES ovarian.
The test system of assay [7] is RPMI-8226 leukemia.
For assay [8], the system named is SF-295 CNS.
The subject of assay [9] is SK-MEL-5 melanoma.
Assay [10] has as its system SNB-75 CNS.
Assay [11] has as its system UACC-62 melanoma.

Experimental findings from PubChem BioAssay (NCI) are described below.

Molecules are shown by their SMILES.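 Compound exposure: 48 hours, 5 concentrations, 96-well plates. TGI: total growth inhibition.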 Where only a bound is given, the exact number is not on record here.

On to `CC1(C)OC[C@@]2([C@@H]3CC[C@@H](C3)C2(C)C)N1O`, for which the TGI in [1], in assay [2], in assay [3], in assay [4], in [5] and in assay [6] was more than 100 µM throughout. In addition, the TGI in [7], in assay [8], in assay [9], in assay [10] and in [11] was more than 100 µM throughout.
With `CC1(C)OC2CN(C(=O)OCc3ccccc3)C(CO)C2O1` (configuration not stated), the TGI in assay [1], in assay [2], in assay [3], in assay [4], in assay [5] and in assay [6] was more than 100 µM each time. In addition, the TGI in assay [7], in assay [8], in assay [9], in assay [10] and in assay [11] was more than 100 µM throughout.
As to `CCOC(=O)C1(Cc2ccccc2)CCN(C(=O)c2ccccc2)C2C1C2(Cl)Cl` (configuration not stated), the TGI was more than 100 µM in assay [1]; more than 100 µM in assay [2]; more than 100 µM in assay [3]; 71 µM in assay [4]; 39.6 µM in [5]; 69 µM in [6]. Moreover, the TGI in assay [7] was 38.2 µM; in assay [8], 77.2 µM; in [9], 29.5 µM; in assay [10], 62.6 µM; in assay [11], 27.2 µM.
Take `COc1ccc(C2c3cc4c(cc3OC(N3CCOCC3)C2C)OCO4)c(OC)c1` (configuration not stated): the TGI in [1] was 54.7 µM; in assay [2] it was more than 75.9 µM; in [3], 25 µM; in assay [4] it was 33.8 µM; in [5] it was 5.25 µM; in assay [6] it was 9.68 µM. The TGI in assay [7] worked out at 19.9 µM; in assay [8] it was 16.3 µM; in assay [9] it was 11.5 µM; in [10] it was 23.4 µM; in [11] it was 20.9 µM.
As to `c1ccc2c(Cc3c[nH]c4ccccc34)c[nH]c2c1`, the TGI was 34.6 µM in assay [1]; more than 100 µM in assay [2]; more than 100 µM in [3]; more than 100 µM in assay [4]; 41.5 µM in assay [5]; 62 µM in assay [6]. Besides, the TGI is 68.8 µM in assay [7]; 43.8 µM in [8]; 27.2 µM in [9]; 36.8 µM in [10]; more than 100 µM in assay [11].
Turning to `Cc1ccc(N2C(=O)CC(=O)N(NC(=O)C(C)Oc3ccccc3C)C2=S)cc1` (configuration not stated), the TGI in assay [1], in assay [2], in assay [3], in [4], in [5] and in assay [6] was more than 100 µM throughout. Moreover, the TGI in assay [7], in assay [8], in assay [9], in assay [10] and in assay [11] was more than 100 µM throughout.
On to `CCOC(=O)CC[C@@H](NC(=O)c1ccc(NCc2ccc3nc(OC)c(OC)nc3c2)cc1)C(=O)OCC`, for which the TGI is more than 100 µM in [1]; more than 100 µM in [2]; more than 100 µM in [3]; more than 31.6 µM in [4]; more than 85.2 µM in assay [5]; more than 100 µM in assay [6]. Besides, the TGI in assay [7] was more than 100 µM; in assay [8] it was more than 100 µM; in assay [9], 27.9 µM; in assay [10], 24.9 µM; in assay [11] it was 32 µM.
With `OCC1CCCCN1Cc1nc2ccc(Cl)cc2[nH]1` (configuration not stated), the TGI in assay [1], in assay [2], in [3], in assay [4], in assay [5] and in assay [6] was more than 100 µM each time. Further, the TGI in assay [7], in assay [8], in assay [9], in assay [10] and in assay [11] was more than 100 µM in each case.
`CNC(=O)CNC(=O)CCC(=O)N(C)C`: the TGI in [1], in assay [2], in assay [3], in assay [4], in assay [5] and in assay [6] was more than 100 µM throughout. Besides, the TGI in [7], in assay [8], in assay [9], in [10] and in assay [11] was more than 100 µM each time.
Consider `CCOC(=O)NC(N(C)C(C(C)C)P(=O)(OCC)OCC)(C(F)(F)F)C(F)(F)F` (configuration not stated), for which the TGI in [1], in assay [2], in assay [3], in [4], in [5] and in assay [6] was more than 100 µM throughout. In addition, the TGI in assay [7], in [8], in assay [9], in assay [10] and in [11] was more than 100 µM in each case.
With `Cn1c2ccccc2n2c3ccccc3c(=S)c(C#N)c12`, the TGI in assay [1], in assay [2], in [3], in [4], in [5] and in assay [6] was more than 100 µM each time. The TGI in assay [7], in assay [8], in assay [9], in assay [10] and in assay [11] was more than 100 µM in each case.
As for `CC1=NN(C(=O)CC(=O)Nc2cccc(Cl)c2)C(=O)C1N=Nc1ccc(S(=O)(=O)c2ccc(N=NC3C(=O)N(C(=O)CC(=O)Nc4cccc(Cl)c4)N=C3C)cc2)cc1` (configuration not stated), the TGI in assay [1], in [2], in [3], in [4], in assay [5] and in assay [6] was more than 100 µM throughout. In addition, the TGI in assay [7], in [8], in assay [9], in [10] and in assay [11] was more than 100 µM each time.
Take `N#Cc1nsnc1-c1nc(-c2nsnc2C#N)nc(-c2nsnc2C#N)n1`: the TGI in assay [1], in assay [2], in [3], in assay [4], in [5] and in assay [6] was more than 100 µM throughout. The TGI in [7], in assay [8], in assay [9], in [10] and in assay [11] was more than 100 µM throughout.
For `O=[N+]([O-])/C(C(Cl)=C(Cl)Cl)=C(/Sc1ccccc1)N1CCOCC1`, the TGI in assay [1] was 25.2 µM; in assay [2] it was 10.9 µM; in assay [3], 3.89 µM; in [4] it was 8.53 µM; in assay [5] it was 14.6 µM; in assay [6], 38.4 µM. Further, the TGI in assay [7] was 5.73 µM; in [8], 36.4 µM; in [9], 11.4 µM; in assay [10], 24.4 µM; in [11] it was 14 µM.
In the case of `COc1ccc(NC(C)=O)c(C(=O)CCNC(C)=O)c1`, the TGI in assay [1], in assay [2], in assay [4], in [5], in assay [6] and in assay [7] was more than 100 µM in each case. Besides, the TGI in assay [8], in assay [9], in assay [10] and in [11] was more than 100 µM each time.
As for `C#CCSc1cnc2ccccc2c1Sc1c[nH]c2ccccc2c1=O`, the TGI in assay [1], in [2], in assay [3], in assay [4], in [5] and in [6] was more than 100 µM in each case. For the same compound, the TGI in [7] was more than 100 µM; in assay [8] it was more than 100 µM; in [9] it was 44.8 µM; in [10], 83.3 µM; in assay [11] it was 54.1 µM.
As to `Cc1ccc(-c2c(C#N)c(S)n(NS(=O)(=O)c3ccccc3)c(=O)c2C#N)cc1`, the TGI is more than 100 µM in [1]; 50.5 µM in assay [2]; more than 100 µM in assay [3]; more than 100 µM in [4]; more than 100 µM in assay [5]; 39.8 µM in assay [6]. Also, the TGI was 77.4 µM in [7]; more than 100 µM in assay [8]; 69.4 µM in assay [9]; 97.2 µM in assay [10]; more than 100 µM in assay [11].
In the case of `CCOP(=O)(OCC)C(Cc1ccccc1)N=C(c1ccccc1)c1ccccc1` (configuration not stated), the TGI in assay [1] was 36.3 µM; in [2], 25 µM; in assay [3] it was 41.9 µM; in [4] it was 31.2 µM; in assay [5], 29.1 µM; in [6] it was 28.7 µM. Also, the TGI in [7] is more than 100 µM; in assay [8], 25.8 µM; in assay [9] it was 25.5 µM; in assay [10] it was 24.2 µM; in [11] it was 26.1 µM.
`CO/N=C1/C(n2[nH]c(=O)n(-c3ccccc3)c2=O)C2C=CC1n1c(=O)n(-c3ccccc3)c(=O)n12` (configuration not stated): the TGI in assay [1], in assay [2], in [3], in assay [4], in [5] and in assay [6] was more than 100 µM each time. The TGI in assay [7], in assay [9], in assay [10] and in [11] was more than 100 µM in each case.
For `C=CCOc1ccc(C2c3c([nH][nH]c3=O)CC(C)(O)C2C(=O)OC)cc1OC` (configuration not stated), the TGI in assay [1], in assay [2], in [4], in assay [5], in assay [6] and in [7] was more than 100 µM in each case. For the same compound, the TGI in assay [8], in [9], in assay [10] and in [11] was more than 100 µM throughout.
For `OCCCN(CCc1ccc(Cl)c(Cl)c1)CCN1CCCC1`, the TGI in assay [1] was more than 100 µM; in assay [2], more than 100 µM; in [3], 46.2 µM; in [4], 79.9 µM; in [5], 42.7 µM; in assay [6], more than 100 µM. Besides, the TGI in [7] is 70.6 µM; in [8] it was more than 100 µM; in assay [10], more than 100 µM; in assay [11] it was 31.5 µM.
As to `C=C(Br)C(Cl)(CBr)CCC(Br)C(C)(C)Cl` (configuration not stated), the TGI in assay [1], in assay [3], in assay [4], in assay [5], in [6] and in assay [7] was more than 10 µM in each case. Also, the TGI in assay [8], in assay [9], in assay [10] and in assay [11] was more than 10 µM each time.
With `COc1ccc(/C=N/n2c(Cc3ccc(Cl)cc3)n[nH]c2=O)cc1`, the TGI in assay [1], in assay [2], in assay [3], in [4], in assay [5] and in assay [6] was more than 100 µM in each case. In addition, the TGI in assay [7] was more than 100 µM; in assay [8], 49.9 µM; in assay [10], 38.5 µM; in assay [11], more than 100 µM.
In the case of `Cn1c2c(c3ccccc31)CC(=O)N1CCCCC1C21OCCO1` (configuration not stated), the TGI in [1], in [2], in [4], in [5], in assay [6] and in [7] was more than 100 µM throughout. Also, the TGI in [8], in assay [9], in assay [10] and in [11] was more than 100 µM each time.
As to `C/C=C/OC1C(C2COC(C)(C)O2)OC2OC(C)(C)OC21` (configuration not stated), the TGI in [1], in assay [2], in [3], in assay [4], in assay [5] and in [6] was more than 100 µM throughout. Moreover, the TGI in assay [7], in [8], in [9] and in assay [10] was more than 100 µM throughout.
